Legend:
adult female rats = assay: Post-coital antifertility efficacy in adult female rats; assay type: in vivo, rat; conditions: daily dose 10 mg/kg, oral, days 1-7 post-coitum
Excerpt: Adult female rats are caged overnight with coeval males of proven fertility and their vaginal smears are checked on the following morning. The day of presence of spermatozoa in the vaginal smear is taken as day 1 of pregnancy. Mated rats are isolated and randomized into various treatment groups and treated orally with the compound of invention or the vehicle on days 1-7/1-5 post-coitum. Animals of all the groups are autopsied on day 10 post-coitum and number and status of corpora lutea and implantation sites in each rat are recorded. The compounds of the present invention are considered active if there is complete absence of implantations in the uterus of all rats, in comparison to presence of normal implantations in the uterus of rats of vehicle control group.

estrogen receptors = target: T1, estrogen receptors (Rattus norvegicus, UniProt P06211); assay: Relative binding affinity (RBA) to estrogen receptors, 3H-estradiol competition assay; design: key: % of 17-beta-estradiol binding affinity (estradiol = 100); conditions: relative to 17-beta-estradiol (=100, percentage value); rat uterine cytosol, 3H-E2, 18 hrs at 4° C.
T1 construct: Aliquot of uterine cytosol (200 μl; 2 uteri per ml) prepared in TEA buffer; from tissue; host or cells: uterine cytosol of immature estradiol-primed 20-21 day old rats
T1 sequence (P06211 1-600): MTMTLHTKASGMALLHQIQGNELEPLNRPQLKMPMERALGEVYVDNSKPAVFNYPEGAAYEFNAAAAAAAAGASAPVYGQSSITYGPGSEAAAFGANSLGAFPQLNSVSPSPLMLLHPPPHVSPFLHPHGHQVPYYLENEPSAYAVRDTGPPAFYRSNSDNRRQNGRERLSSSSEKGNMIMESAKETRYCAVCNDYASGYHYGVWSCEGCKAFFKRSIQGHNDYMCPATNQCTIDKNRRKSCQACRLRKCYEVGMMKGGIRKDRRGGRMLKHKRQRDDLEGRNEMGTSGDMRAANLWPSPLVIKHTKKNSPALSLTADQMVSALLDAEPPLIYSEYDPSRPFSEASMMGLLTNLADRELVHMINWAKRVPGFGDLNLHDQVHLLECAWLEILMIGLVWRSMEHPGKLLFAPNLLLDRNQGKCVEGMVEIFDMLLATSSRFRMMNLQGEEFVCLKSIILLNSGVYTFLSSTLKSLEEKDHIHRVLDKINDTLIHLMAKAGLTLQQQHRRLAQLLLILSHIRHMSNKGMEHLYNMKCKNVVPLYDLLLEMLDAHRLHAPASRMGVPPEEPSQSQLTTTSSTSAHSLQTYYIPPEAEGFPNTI
Protocol: The relative binding affinity (RBA) of the compounds for estrogen receptor is determined by competition assay, employing ^3H-estradiol (^3H-E2) as the radioligand. The test ligands and ^3H-E2 are incubated at 4° C. with cystol estrogen receptors obtained from uteri of immature estradoil-primed (1 μg/rat 24 h before autopsy) 20-21 days old rats. Aliquot of uterine cytosol (200 μl; 2 uteri per ml) prepared in TEA buffer (10 mM Tris, 1.5 mM EDTA, 0.02% sodium azide, pH 7.4) are incubated in duplicate with a fixed concentration of ^3H-E2 in the absence or presence of various concentrations of the competitor substance dissolved in 30 μl of the TEA buffer containing DMF as co-solvent (final concentration of DMF in the incubation mixture never exceeded 5%) for 18 hrs at 4° C. At the end of this period, dextran coated charcoal (5% Norit 0.5% dextran) suspension in 100 μl of TEA buffer is added to each tube, briefly vortexed and allowed to stand for 15 minutes at 4° C. The mixture is centrifuged at 800 g for 10 minutes and the supernatants counted for radioactivity in 10 ml of a dioxane-based scintillation fluid. RBA of the text compound is computed from a graph plotted between percent bound radioactivity verses log concentration of the test substance. […] This when multiplied with 100 gives the percentage value designated as RBA.

[1] = test system: chick fetal bones in culture; assay: Inhibition in PTH-induced resorption of 45Ca from chick fetal bones in culture (antiresorptive activity in vitro); assay type: cell-based; conditions: Gallus gallus, 96 h, 100 μM; PTH-induced 45Ca resorption, 96 h culture; read-out: T/C ratio
Protocol: 5 μl of each concentration are used for evaluation of antiresorptive activity in vitro. In control experiments, 5 μl of appropriate solvent is used in lieu of the test compound. Femur bones are isolated from chick embryos on day 11 post-ovulation. The adhering soft connective tissue is completely removed. Each femur bone is then placed in a drop of phosphate buffered saline (PBS) and is transferred to BGJb culture medium containing ^45CaCl2 and incubated for 2 h. Labeled femur bones are washed 2-3 times with PBS and transferred to BGJb medium containing parathyroid hormone and cultured for 96 h in the presence or absence of the compound of invention or the vehicle in BGJb medium. Contralateral femur of each fetus serves as corresponding control. Culture medium with the respective treatment in each well is changed after 48 h. On termination of the culture at 96 h, bones are transferred to 0.1 N HCl for 24 h. Radioactivity due to ^45Ca in the spent medium collected at 48 and 96 h of culture and HCl extract at 96 h of culture is quantified by Liquid Scintillation Spectrophotometer in 10 ml of the scintillation fluid. Bone resorbing activity is expressed as percentage of ^45Ca released into the culture medium and the effect of the compound of invention as percent of the corresponding contra-lateral control or T/C ratio as shown below: [formula]
Appropriate solvents are selected from solvents like water, physiological saline, phosphate buffered saline, phosphate buffer, DMSO alone or in a suitable combination thereof.

[2] = test system: immature ovariectomized rats; assay: Estrogen agonistic activity: increase in uterine weight in immature ovariectomized rats; assay type: in vivo, rat; conditions: Rattus norvegicus, 72 h, daily dose 10 mg/kg, 3 days; percent of ovariectomized + vehicle group
Protocol: Twenty-one-day-old immature female rats are bilaterally ovariectomized under light ether anaesthesia and, after post-operative rest for 7 days, are randomized into different treatment groups. Each rat receives the compound of the invention once daily for 3 consecutive days on days 28-30 of age. A separate group of animals receiving only the vehicle for similar duration serves as control. A autopsy 24 h after the last treatment on day 31 of age, vaginal smear of each rat is taken and uterus is carefully exised, gently blotted, weighed and fixed for histology and histomorphometry using image analysis. Premature opening of vagina, cornification of vaginal epitelium, increase in uterine fresh weight, total uterine and endometrial area and uterine luminal epithelial cell height are taken as parameters for evaluation of estrogen agonistic activity in comparision to rats of vehicle control group.

[3] = test system: immature ovariectomized rats; assay: Estrogen antagonistic activity: inhibition in 17α-ethynylestradiol induced uterine weight gain in immature ovariectomized rats; assay type: in vivo, rat; conditions: Rattus norvegicus, 72 h; daily dose 10 mg/kg with 0.02 mg/kg 17-alfa-ethynylestradiol, 3 days; read-out: Percent inhibition in 17α-ethynylestradiol induced uterine weight gain
Protocol: Twenty-one-day-old immature female rats are bilaterally ovariectomized under light ether anaesthesia and after post-operative rest for 7 days, are randomized into different treatment groups. Each rat receives the compounds of the invention and 0.02 mg/kg dose of 17-alfa-ethynylestradiol in 10% ethanol-distilled water once daily for 3 consecutive days on days 28-30 of age. A separate group of animals receiving only 17-alfa-ethynylestradiol (0.02 mg/kg) in 10% ethanol-distilled water for similar duration are used for comparison. At autopsy on day 31 of age, vaginal smear of each rat is taken and uterus is carefully excised, gently blotted, weighed and fixed for histology and histomorphometry using image analysis. Inhibition in 17-alfa-ethynylestradiol-induced premature opening of vagina, cornification of vaginal epithelium, increase in uterine fresh weight, total uterine and endometrial area and uterine luminal epithelial cell height are taken as parameters for evaluation of estrogen antagonistic activity.

melting point [°C]	RBA (estrogen receptors)	SMILES	% Efficacy (adult female rats)	activity at 100 µM [1] [%]	change in vivo at 10 mg/kg [2] [%]	inhibition in vivo at 10 mg/kg/day [3] [%]
129 to 130		c1ccc2c(c1)OCCc1c-2n(Cc2ccc(OCCCN3CCCCC3)cc2)c2ccccc12 [Example number 58, 12-[4-(3-Piperidin-1-yl-propyloxy)benzyl]-6,7-dihydro-12H-benzoxepino[5,4-b]indole]	Inactive	98	7.85	11.4
70 to 71		c1ccc2c(c1)SCCc1c-2n(Cc2ccc(OCCCN3CCCCC3)cc2)c2ccccc12 [Example number 41, 12-[4-(3-Piperidin-1-yl-propyloxy)benzyl]-6,7-dihydro-12H-benzothiepino [5,4-b]indole]	Inactive	108	42.9	6.41
65 to 66		c1ccc2c(c1)OCCc1c-2n(CCCN2CCCCC2)c2ccccc12 [Example number 47, 12-[3-(Piperidine-1-yl)propyl]-6,7-dihydro-12H-benzoxepino[5,4-b]indole]	Inactive		8.31	17.2
118		c1ccc2c(c1)SCCc1c-2n(CCN2CCCCC2)c2ccccc12 [Example number 5, 12-[2-(Piperidine-1-yl)ethyl]-6,7-dihydro-12H-benzothiepino [5,4-b]indole]	Inactive			

The next lines start with the molecule.

SMILES	melting point [°C]	RBA (estrogen receptors)	% Efficacy (adult female rats)	activity at 100 µM [1] [%]	change in vivo at 10 mg/kg [2] [%]	inhibition in vivo at 10 mg/kg/day [3] [%]
c1ccc2c(c1)OCCc1c-2n(CCN2CCCCC2)c2ccccc12 [Example number 45, 12-[2-(Piperidine-1-yl)ethyl]-6,7-dihydro-12H-benzoxepino[5,4-b]indole]	103		Inactive			
Oc1ccc2c(c1)c1c(n2CCCCCN2CCCC2)-c2ccccc2SCC1 [Example number 30, 9-Hydroxy-12-[5-(pyrrolidine-1-yl)pentyl]-6,7-dihydro-12H-benzothiepino [5,4-b]indole]	217 to 219	<0.001	Inactive			
CCCCN(C)CCCCCn1c2c(c3cc(O)ccc31)CCSc1cc(O)ccc1-2 [Example number 37]	134 to 136	0.36				

Reference: patent US20050282863A1, “Novel-N substituted dihydrobenzothiepino, dihydrobenzoxepino and tetrahydro benzocyclohepta indoles as selective estrogen receptor modulators” (Council of Scientific & Industrial Research, priority 2004, published 2005)
